Entries after “also recorded” stand apart in the source; their conditions may differ.
Assays:
[1] = target: T1, binding of human NME1 to synthetic MUC1* peptide (Homo sapiens, UniProt P15941); test: ELISA: inhibition of NME1 binding to immobilized MUC1* peptide; conditions: free peptides
T1 sequence (P15941 1110-1154 limits assumed): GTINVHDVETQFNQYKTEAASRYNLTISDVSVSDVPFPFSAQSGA
From the text: (§1) NME7 peptides were selected as immunizing agents for antibody production. NME7 peptides A1, A2, B1, B2 and B3 (FIG. 19) were chosen using a process of sequence alignment among human NME1, human NME7 and several bacterial NMEs that were homologous to human NME1 or human NME7. Five regions that had high sequence homology among all were identified. However, to prevent selecting peptides that would give rise to antibodies that would inhibit human NME1 as well as human NME7, we chose NME7 sequences that were adjacent to the homologous regions wherein those peptides had sequences that were different from human NME1. We did ELISA assays to see if the peptides on their own could bind to a synthetic MUC1* peptide on the surface and inhibit the binding of human NME7 or human NME1 to the immobilized peptide (FIG. 27).

[2] = system: T47D breast cancer cells; test: Inhibition of NME7-AB or 2i induced transition of cancer cells to metastatic cancer cells (floaters, RT-PCR); format: cell-based, human; conditions: for expression of metastasis marker CXCR4 (RT-PCR) / floater cells (change from adherent cells to floaters): cells grown in NME7-AB or 2i; for floater cells (change from adherent cells to floaters): visual observation; for inhibition of transition to a more metastatic state (RT-PCR CXCR4, CHD1, SOX2): peptides alone, transition induced by 2i inhibitors
Method: In one example, NME7-AB specific antibodies, generated by immunization with NME7-derived peptides A1, A2, B1, B2 and B3, as well as the immunizing peptides themselves, were added into the media along with either NME7-AB or 2i to determine if they inhibited the transformation of regular cancer cells to metastatic cancer stem cells. Antibodies and peptides were separately added along with the agent that causes metastatic transformation; in this case NME7-AB or the 2i inhibitors PD0325901 and CHIR99021. NME7-AB and 2i were separately used to induce the cancer cells to be transformed to a more aggressive metastatic state. 2i was used so that it could not be argued that the antibodies that were added to the media simply sopped up all of the NME7-AB so that the causative agent effectively was not there (Example 14).
Visual observation was independently recorded by two scientists as the experiment progressed (FIG. 30). […] The amount of mRNA, which indicates cell viability and growth, was measured. […] RT-PCR was used to measure expression levels of metastatic markers, including CXCR4.
In another experiment, the free peptides A1, A2, B1, B2 and B3 were added to cancer cells in culture that were undergoing transition to a more metastatic state by culturing in either NME7-AB or 2i.
In the first of these experiments, the antibodies generated by immunization with A1, A2, B1, B2 and B3 were tested for their ability to inhibit the metastatic transition induced by culture of T47D breast cancer cells in NME7-AB or in 2i inhibitors.
RT-PCR was used to measure expression levels of metastatic markers, including CXCR4. […] (See FIG. 31). […] Peptide B3 was especially effective as was antibody #61 that it generated. […] The amount of mRNA, which indicates cell viability and growth, was measured.

[3] = system: T47D breast cancer cells; test: Cancer cell growth inhibition by anti-NME7 specific antibodies and immunizing peptides (Example 13); format: cell-based, human; conditions: added separately; RPMI with serum
Method: Rabbits were immunized with NME7 peptides A1, A2, B1, B2, and B3 and antibodies were generated, collected and purified over a column to which the immunizing peptide had been conjugated. T47D breast cancer cells were plated and cultured according to ATCC protocols in RPMI media supplemented with serum. Immunizing peptides A1, A2, B1, B2, and B3, and the PSMGFR extracellular domain peptide of MUC1*, “FLR” here, were also added separately to growing T47D breast cancer cells. Taxol and the E6 anti-MUC1* Fab were added as controls. […] Note the comparison to inhibition using Taxol, which is a chemotherapy agent that kills healthy and cancer cells alike. Also, for comparison, a polyclonal antibody generated using a large stretch of NME7 from amino acid 100 to 376 is shown.
In a similar experiment, combinations of the antibodies generated from immunization with peptides A1, A2, B1, B2, and B3 as well as the peptides themselves were added to growing cancer cells at the concentrations indicated. […] In these two experiments, the cells were MUC1* positive breast cancer cells.

[4] = target: T2, binding of human NME7 to synthetic MUC1* peptide (Homo sapiens, UniProt P15941); test: ELISA: inhibition of NME7 binding to immobilized MUC1* peptide; conditions: free peptides
T2 construct: made in house; host or cells: E. coli
T2 sequence (P15941 1110-1154 limits assumed): T1 sequence (P15941 1110-1154 limits assumed)
From the text: Those antibodies that inhibit cancer growth or transition to a more metastatic state are selected for use as anti-cancer therapeutics and may be administered to a patient for the treatment or prevention of cancers. Selected antibodies may be further optimized for example by engineering or making human chimera antibodies or fully human antibodies. […] We then generated antibodies using these peptides and then tested both the resultant antibodies as well as the immunizing peptides for their ability to: a) inhibit cancerous growth; and b) inhibit the induced transition from cancer cells to metastatic cancer cells. NME7 peptides were selected as immunizing agents for antibody production and as inhibitory agents themselves (FIG. 19 and Example 11). Peptides A1 (SEQ ID NO:141), A2 (SEQ ID NO:142), B1 (SEQ ID NO:143), B2 (SEQ ID NO:144) and B3 (SEQ ID NO:145), wherein A refers to the domain from which the peptide is derived, i.e. the NDPK A domain and the B denotes that the peptide is derived from the NDPK B domain (FIG. 15). Each peptide was used as an immunogen and injected into 2 rabbits each for production of polyclonal antibodies. The antibodies that were harvested from the blood of the immunized rabbits were purified over a column derivatized with the immunizing peptide. The purified antibodies were then tested for their ability to bind to human NME7. All of the resultant antibodies bound to human NME7 but not human NME1 as desired (FIG. 26A-B, Example 12). […] The antibodies were also tested for their ability to inhibit the binding of NME7 to a MUC1* extracellular domain peptide.
as §1

[5] = system: Human stem cells (iPS cat #SC101a-1); test: Human stem cell growth and pluripotency in NME7-AB or NM23-H1 dimers; format: cell-based; conditions: 8 nM in Minimal Stem Cell Media
Method: For testing recombinant NME7-AB for ability to maintain pluripotency and inhibit differentiation, a soluble variant of NME7, NME7-AB, was generated and purified. Human stem cells (iPS cat #SC101a-1, System Biosciences) were grown per the manufacturer's directions in 4 ng/ml bFGF over a layer of mouse fibroblast feeder cells for four passages. These source stem cells were then plated into 6-well cell culture plates (Vita™, Thermo Fisher) that had been coated with 12.5 ug/well of a monoclonal anti-MUC1* antibody, MN-C3. Cells were plated at a density of 300,000 cells per well. The base media was Minimal Stem Cell Media consisting of: 400 ml DME/F12/GlutaMAX I (Invitrogen #10565-018), 100 ml Knockout Serum Replacement (KO-SR, Invitrogen #10828-028), 5 ml 100×MEM Non-essential Amino Acid Solution (Invitrogen #11140-050) and 0.9 ml (0.1 mM) β-mercaptoethanol (55 mM stock, Invitrogen #21985-023). The base media can be any media. In a preferred embodiment, the base media is free of other growth factors and cytokines. To the base media was added either 8 nM of NME7-AB or 8 nM NM23-H1 refolded and purified as stable dimers. Media was changed every 48 hours and due to accelerated growth, had to be harvested and passaged at Day 3 post-plating.
Cell counts at the first harvest verified that culture in NME7 produced 1.4-times more cells than culture in NM23-H1 dimers.

| Substance | inhibition of binding of NME1 to immobilized MUC1* peptide [1] | inhibition of binding of NME7 to immobilized MUC1* peptide [4] | expression of metastasis marker CXCR4 (RT-PCR) [2] | floater cells (change from adherent cells to floaters) [2] | inhibition of transition to a more metastatic state (RT-PCR CXCR4, CHD1, SOX2) [2] | inhibition of cancer cell growth [3] | pluripotent stem cell growth / differentiation [5] |
| --- | --- | --- | --- | --- | --- | --- | --- |
| DAGFEISAMQMFNMDRVNVE (peptide B1) | inhibited the binding | inhibited the binding | inhibited the increase in expression | inhibited the morphological change | potently inhibit | potently inhibited the growth |  |
| NM23-H1 (NME1) dimers: NM23-H1 refolded and purified as stable dimers |  |  |  |  |  |  | no differentiation even when 100% confluent |
| SGVARTDASES (peptide A2) | inhibited the binding | inhibited the binding | inhibited the increase in expression | inhibited the morphological change | potently inhibit | potently inhibited the growth |  |

Further lines, with some results ahead:

| inhibition of binding of NME1 to immobilized MUC1* peptide [1] | inhibition of binding of NME7 to immobilized MUC1* peptide [4] | Substance | expression of metastasis marker CXCR4 (RT-PCR) [2] | floater cells (change from adherent cells to floaters) [2] | inhibition of transition to a more metastatic state (RT-PCR CXCR4, CHD1, SOX2) [2] | inhibition of cancer cell growth [3] | pluripotent stem cell growth / differentiation [5] |
| --- | --- | --- | --- | --- | --- | --- | --- |
| inhibited the binding | inhibited the binding | AIFGKTKIQNAVHCTDLPEDGLLEVQYFF (peptide B3) | inhibited the increase in expression | inhibited the morphological change | potently inhibit; also recorded: most inhibitory | potently inhibited the growth |  |
| inhibited the binding | inhibited the binding | EVYKGVVTEYHDMVTE (peptide B2) | inhibited the increase in expression | inhibited the morphological change | potently inhibit | potently inhibited the growth |  |
| inhibited the binding | inhibited the binding | MLSRKEALDFHVDHQS (peptide A1) | inhibited the increase in expression | inhibited the morphological change | potently inhibit | potently inhibited the growth |  |

— US12479928B2, “Anti-cancer peptide” (Minerva Biotechnologies Corporation, priority 2014, dated 2025)
